For orientation: Cmax means the highest concentration seen after dosing.

Consider four compounds from patent publication EP4183391A1, “PHARMACEUTICAL COMPOSITION AND USE THEREOF” (Shenzhen Salubris Pharmaceuticals Co., Ltd., priority 2020, dated 2022).

One data set concerns male ICR mice. Nature of the data set: Mouse tail suspension model. The format is in vivo. Particulars: immobility time. The procedure:
110 male ICR mice were accommodated in the experimental environment for 3 days prior to the test, with 10 animals reserved for future use.
According to the experimental design, the mice were randomly grouped according to their body weight at one day before administration.
The time of initiation of administration was defined as 0 min.
The 2 cm tail end of the mouse was attached to a horizontal metal stick so that the mouse was suspended and the immobility time period of the mouse was observed and recorded over a period of 6 min. The last 4 min of immobility time period was recorded by a timer and was used for data analysis.
Excel software was used to collect data. Data were analyzed using Prism (Graphpad software, Inc.) software, in which variance between two groups was analyzed using the t-test method, and one-way ANOVA with additional Dunnett's multiple comparison test was performed among each animal group. p<0.05 is considered as having a significant difference.

The next data set relates to male C57BL/6J mice. The data set can be described thus: Relieving a cough in mice, concentrated ammonia steam (Example 5). It counts as in vivo. Particulars: 60 min. The procedure:
Ammonium Hydroxide, ACS Reagent, 28.0-30.0% NH3, AI LAN (Shanghai) Chemical Technology Co., Ltd., batch no. CEC1070004. Ultrasonic Nebulizer WH-2000, Guangdong Yuehua Medical Equipment Factory Co., Ltd.
88 male C57BL/6J mice, weighing 20-22 g, were purchased from Beijing Vital River Laboratory Animal Technology Co., Ltd.
Mice in each group were administered with 1 dose of the corresponding experimental drugs to be tested in a volume of 10 ml/kg. After 60 min of administration, the mice were placed in an inverted 600 ml beaker filled with concentrated ammonia saturated steam and immediately timed for 10 s, and then the mice were removed and placed in another inverted 600 ml beaker to observe the coughing of the mice and recorded the total coughs within 5 min.
All experimental data are expressed as means. Statistical analysis was carried out using Graphad Prism 5 software. One-way ANOVA test was used for comparison between groups. SNK was used for comparison between groups with equal variance. Dunnett's T3 was used for comparison between groups with unequal variance. P < 0.05 indicated statistical significance.

Data set [1] in a line: Pharmacokinetic experiments in dogs. The conditions noted are these: 14 mg/kg single gavage, Day1, analyte deDM in plasma. On the procedure:
Reagents: Sodium chloride injection, EDTA-K2, acetonitrile and formic acid were commercially available.
Instrument: AB SCIEX 5500 triple quadrupole mass spectrometer.
18 Beagle dogs, half male and half female, weighing 6 kg-10 kg, were purchased from Jiangsu Yadong Experimental Animal Research Institute Co., Ltd.
After single gavage administration in dogs, about 1 mL of blood was collected with a scalp needle from a vein in the forelimb or hindlimb at 0 min (before administration), 5 min, 15 min, 30 min, 1 h, 2 h, 4 h, 8 h and 24 h in a blood collection tube containing EDTA-K2 anticoagulant and then centrifuged at 4000 rpm for 10 min to separate the plasma which was stored at ≤- 65°C for testing.
The standard curve concentrations of dextromethorphan in plasma were 1 ng/mL, 2 ng/mL, 10 ng/mL, 50 ng/mL, 200 ng/mL, 400 ng/mL, 600 ng/mL and 1000 ng/mL and QC concentrations were 3 ng/mL, 30 ng/mL, 500 ng/mL and 800 ng/mL.

Where a name gives a salt, the structure may show the parent alone.

Regarding `CC(NC(C)(C)C)C(=O)c1cccc(Cl)c1` (stereo not drawn) [Bup, bupropion hydrochloride, reference compound], in the data set with male ICR mice (50 mg/kg oral), the Inhibition rate was 56.00%^∗∗.
The compound `CC(NC(C)(C)C)C(=O)c1cccc(Cl)c1` (stereo not drawn) [Bupropion, 1-(3-chlorophenyl)-2-[(1,1-dimethylethyl)amino]-1-propanone, reference compound] showed a Cough inhibition rate% with male C57BL/6J mice (30 mg/kg) of 9.1%.
In the case of `[2H]C([2H])([2H])Oc1ccc2c(c1)[C@]13CCCC[C@@H]1[C@H](C2)N(C([2H])([2H])[2H])CC3` [Deuterated dextromethorphan], the Cough inhibition rate% in the data set with male C57BL/6J mice (3 mg/kg) worked out at 11.6%; in the data set with male C57BL/6J mice (12 mg/kg), 22.5%.
With “deuterated dextromethorphan hydrobromide monohydrate [deDM]”, the Inhibition rate came out at 5.0% in the data set on male ICR mice (10 mg/kg oral), 2.1% in the data set on male ICR mice (12 mg/kg oral), 5.9% with male ICR mice (15 mg/kg oral) and 4.1% with male ICR mice (18 mg/kg oral). Moreover, the AUClast is 153 h^∗ng/ml in data set [1] (Female) and 383 h^∗ng/ml in data set [1] (Male). In addition, the Cmax in data set [1] (Female) came to 60 ng/mL; in data set [1] (Male), 157 ng/mL.
